The values that follow come from patent publication EP1228058B1, “BENZOPYRANYL GUANIDINE DERIVATIVES, PROCESS FOR PREPARATION THEREOF, AND PHARMACEUTICAL COMPOSITIONS CONTAINING THEM” (Dongbu Hannong Chemical Co., Ltd., priority 1999, dated 2001).

For one data set, the system named is HUVEC. The experiment in a line: Inhibition of intracellular ROS induced by H2O2 (H2DCFDA) in HUVEC. The note with it: Homo sapiens; for inhibition at 10 µM: Conc. 10^-5 M; for inhibition at 1 µM: Conc. 10^-6 M; for inhibition at 0.1 µM: Conc. 10^-7 M. It counts as cell-based, Human. The protocol:
Measurement of intracellular ROS (Reactive Oxygen Species) was determined using H2DCFDA (2',7'-dichlorodihydrofluorescein diacetate, Molecular Probes, Eugene, OR, USA). H2DCFDA is a non-polar compound that readily diffused into cells, where it is hydrolyzed by intracellular esterase to polar derivative H2DCF (2',7'-dichlorodihydrofluorescein) which can not cross the cell membrane, and thereby trapped within the cell. H2DCF is low-fluorescent, but converted to high-fluorescent DCF (2',7'-dichlorofluorescein) by intracellular ROS. Therefore, the intracellular ROS formation can be determined from the amount of converted DCF. HUVEC (Human umbilical Vascular Endothelial Cells) or A7r5 (Rat thoracic aorta smooth muscle cells) were used. HUVEC were cultured in Kaighn's F12K medium supplemented with 10% heat-inactivated FBS, 0.1 mg/ml heparin sodium, 0.03-0.05 mg/ml ECGS (Endothelial cell growth supplement) and 1% antibiotics, and A7r5 were cultured in DMEM supplemented with 10% heat inactivated FBS and 1% antibiotics. To measure the intracellular ROS, HUVEC or A7r5 were preincubated for 30 min in the presence of test compounds (10^-7-10^-5 M). Thereafter, cells were stimulated with H2O2 (10^-6 and 10^-5 M for 20 min), and then incubated in the dark for 2 hr at 37 °C in 50 mM phosphate buffer (pH 7.4) containing 5 uM H2DCFDA. The quantity of DCF fluorescence (485 nm excitation, 530 nm emission) was measured using Fluorescence plate reader (FL600, Biotek Instruments).

Data set [1] concerns brain ischemia-reperfusion in Sprague-Dawley rats. As to the kind of experiment: Protection against brain damage induced by brain ischemia-reperfusion. The protocol:
Male Sprague-Dawley rats (350±50 g, SamYook Experimental Animals Co., Korea) were anesthetized by the injection of pentobarbital sodium at a dose of 40 mg/kg, after which the femoral vein and the artery were cannulated with PE-10 while the left carotid artery was exposed. Five min. before the operation, 20 ug/kg of heparin sulfate was injected into the peritoneal cavity. For the continuous measurement of arterial pressure, with a insertion of a blood pressure measuring device into the femoral artery. About 10 ml of blood was taken from the femoral vein to reduce the blood pressure down to 30 mmHg. If the blood pressure is not reduced to less than 100 mmHg with a withdrawal of 7 ml of blood, the rats are considered to have high sympathetic tone.
While the blood pressure was maintained at 30 mmHg, the exposed left carotid artery was occluded for 20 min by an aneurysm clamp to cause cerebral ischemia. Then, the carotid clamps were removed and the extracted blood was reinfused. To minimize the systemic acidosis, the rats were reinfused with 5 ml of saline containing 0.84% bicarbonate sodium (bicarbonate saline). During operation and restoration period, body temperature was maintained at 37±0.5 °C with the aid of a thermal blanket and incandescent light bulbs. During their restoration from the operation, the body temperature was kept constant for 2 hours or more. […]
24 hours after the operation, the rats were sacrificed with a scaffold and the brain was removed rapidly (3 min). […] After photographs were taken of the stained sections, developed and printed, the percentages of the infarcted brain areas to the total brain were measured and analyzed using an image analyzing program (Image-Pro Plus ver. 3.0.1). […]
The protective effects of the test compounds on the brain damage caused by brain ischemia-reperfusion were expressed as a reduction percentages of infarcted brain areas compared with those of the control group.

A further data set deals with ischemic retinal cells. The experiment in a line: Protection of ischemic retinal cells (raised intraocular pressure). The class given is in vivo, rats. Particulars: vitreous injection 30 min before ischemia. The protocol:
Test compounds were dissolved in DMSO to prepare stock solution (100 mM), which was diluted with physiological saline to the concentration of 100, 50 and 30 uM. Test compounds were administered by vitreous injection before 30 min of ischemia.
Adult rats were anaesthetized with ip (intra peritoneum) injection of chloral hydrate (400 mg/Kg), then the right eyes were treated with 1% tropicamide to dilate the pupils. The intraocular pressure (IOP) was raised to 160-180 mmHg, higher than normal blood pressure (140 mmHg), by cannulation of the anterior chamber connected to hydrostatic pressure device. Interruption of blood flow was confirmed ophthalmoscopically, the elevated IOP was maintained for 30 min. After 30 min of ischemia, both eyes were enucleated, and the retina was separated, of which cellular damage was observed. Number of cells in ganglion cell layer (250 x 25 um) and innernuclear layer (150 x 25 um) were counted, then calculated as a % of living cells compared to those of non-operated left eyes as a normal control.

A short description of data set [2]: ORAC (oxygen-radical absorbance capacity) assay. It counts as biochemical. Particulars: 1 ORAC unit = net protection by 1 uM Trolox. The protocol: The method utilized β-PE (β-phycoerythrin) as an indicator protein, and AAPH (2,2'-azobis(2-amidinopropane) dihydrochloride) as a peroxy radical generator. Reaction mixtures consisted of test compounds (10^-6M and 10^-4M), β-PE (1.76 x 10^-8M), and AAPH (3 x 10^-3 M) in 75 mM phosphate buffer (pH 7.0). A final volume of 2 ml was used in 24 well plates. Test compounds were first dissolved in acetone and then added to the reaction mixture. Once AAPH was added, the reaction was initiated at 37 °C and the fluorescence (485 nm excitation, 590 nm emission) was measured every 5 min using Fluorescence reader (FL600, Biotek Instrument). The ORAC units were calculated based on the area under the fluorescence curve of β-PE in the presence of the test compound compared to the area generated by 1 uM Trolox. 1 ORAC unit represents the net protection provided by 1 uM Trolox.

In data set [3] the test system is angiogenesis induced by Angiotensin II in Sprague-Dawley rats. The experiment in a line: Suppression of Angiotensin II induced angiogenesis in implanted sponge (99mTc-DTPA clearance). It counts as in vivo. The note with it: AII (100nmol) + test drug, 7 days after injection.
The mark [4] stands for this setting: read-out: Inhibition (%) H2O2 (10^-5M).
The mark [5] stands for this setting: read-out: Inhibition (%) H2O2 (10^-6M).

Several values for one entry are separate records, joined by “and”; a condition that tells them apart may be missing. Equal values may be shown once. Read-outs that look alike come from different tables or passages of the source.

As a reminder, the inhibition is the relative decrease from the control value, in per cent.

For `COC(OC)[C@@]1(C)Oc2ccc(N)cc2[C@@H](NC(=NC#N)NCc2ccccc2)[C@@H]1O` [Example 40, (2S, 3S, 4R)-N''-cyano-N-(6 - amino-3,4-dihydro-3-hydroxy-2-methyl-2-dimethoxymethyl-2H-benzopyran-4-yl)-N'-benzylguanidine], the inhibition at 10 µM was determined as 54.9% with HUVEC (setting [4]) and 63.1% in the data set on HUVEC (setting [5]). In addition, the inhibition at 1 µM stood at 25.8% in the data set on HUVEC (setting [4]) and 46.1% in the data set with HUVEC (setting [5]). Besides, the values for the inhibition at 0.1 µM with HUVEC (setting [4]) and in the data set with HUVEC (setting [5]) were 12% and 17.6%, respectively. Also, the “Infarction Area Reduction(%)” value in data set [1] (Dose 30 mg/kg, compared with the control group) stood at 42.0%. Besides, in data set [1] (Dose 30 mg/kg, peritoneally, 30 min before and 2, 4, 16 hours after occlusion), the “Infarction Area Mean±SD(%)” value is 23.0% and 23.0 ± 3.3%. The side effects result in data set [1] (rat, in vivo, 30 mg/kg) is given as “did not suffer from any side effects”. The “Living cell (%) Ganglion Cell layer” value in the data set with ischemic retinal cells (30 uM) worked out at 40.7%; in the data set on ischemic retinal cells (50 uM), 60.2%; with ischemic retinal cells (100 uM), 77.9%. For the same compound, the “Living cell (%) Innernuclear layer” value with ischemic retinal cells (30 uM) is 54.8%; in the data set on ischemic retinal cells (50 uM), 69.8%; in the data set with ischemic retinal cells (100 uM), 82.6%. Also, the ORAC units in data set [2] (Conc. 10^-4 M) is 3.250 ORAC units; in data set [2] (Conc. 10^-6 M) it was 2.047 ORAC units.
`COC(OC)[C@@]1(C)Oc2ccc([N+](=O)[O-])cc2[C@H](NC(=NC#N)NCc2ccccc2)[C@H]1O` [Example 24, (2S, 3R, 4S)-N''-cyano-N-(6-nitro-3,4-dihydro-3-hydroxy-2-methyl-2-dimethoxymethyl-2H-benzopyran-4-yl)-N'-benzylguanidine]: the “Clearance of ^99mTC (%)” value in data set [3] (Dose 0.1 mg/kg (p.o)) is given as 26.90%; in data set [3] (Dose 0.3 mg/kg (p.o)) it was 18.22%; in data set [3] (Dose 1.0 mg/kg (p.o)), 3.38%.
